In article PMC9851200, “Multiparameter phenotypic screening for endogenous TFEB and TFE3 translocation identifies novel chemical series modulating lysosome function” (Autophagy, 2022):

Tests used:
Type in all cases: binding
[1] = molecular target: T1, kinases (KINOMEscan panel) (Homo sapiens, UniProt P78356); details: PIP4K2B; NEW KINOMEscan
T1 sequence (P78356 1-416): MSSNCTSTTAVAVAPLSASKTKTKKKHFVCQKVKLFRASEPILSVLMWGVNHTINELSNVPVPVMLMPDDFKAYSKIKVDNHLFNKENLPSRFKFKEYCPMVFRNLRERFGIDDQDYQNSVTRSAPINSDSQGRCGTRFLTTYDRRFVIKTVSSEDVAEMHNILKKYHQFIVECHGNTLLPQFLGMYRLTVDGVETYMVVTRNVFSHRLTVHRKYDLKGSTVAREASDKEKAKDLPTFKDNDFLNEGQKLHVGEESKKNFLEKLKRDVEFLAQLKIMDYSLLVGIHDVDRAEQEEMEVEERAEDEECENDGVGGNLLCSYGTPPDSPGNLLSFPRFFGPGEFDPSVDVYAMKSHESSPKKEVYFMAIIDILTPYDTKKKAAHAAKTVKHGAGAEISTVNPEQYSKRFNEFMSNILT

[2] = molecular target: T2, kinases (KINOMEscan panel) (Homo sapiens, UniProt Q8WTQ7); details: kinase GRK7; NEW KINOMEscan
T2 sequence (Q8WTQ7 1-553): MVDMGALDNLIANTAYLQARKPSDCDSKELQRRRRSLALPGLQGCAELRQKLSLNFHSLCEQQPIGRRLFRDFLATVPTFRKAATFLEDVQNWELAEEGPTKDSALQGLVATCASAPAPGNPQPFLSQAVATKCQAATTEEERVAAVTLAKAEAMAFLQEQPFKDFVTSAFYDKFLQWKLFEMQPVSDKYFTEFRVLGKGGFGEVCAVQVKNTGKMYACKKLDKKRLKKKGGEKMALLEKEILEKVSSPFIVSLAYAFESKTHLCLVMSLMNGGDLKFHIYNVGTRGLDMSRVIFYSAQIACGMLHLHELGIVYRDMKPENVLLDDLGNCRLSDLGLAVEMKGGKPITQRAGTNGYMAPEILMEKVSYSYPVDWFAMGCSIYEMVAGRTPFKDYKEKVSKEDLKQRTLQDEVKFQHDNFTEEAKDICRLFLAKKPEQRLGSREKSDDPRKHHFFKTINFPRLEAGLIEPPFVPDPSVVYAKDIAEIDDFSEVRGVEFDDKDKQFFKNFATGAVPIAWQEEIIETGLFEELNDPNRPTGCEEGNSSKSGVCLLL

[3] = molecular target: T3, kinases (KINOMEscan panel) (Homo sapiens, UniProt O15530); details: NEW KINOMEscan
T3 sequence (O15530 1-556): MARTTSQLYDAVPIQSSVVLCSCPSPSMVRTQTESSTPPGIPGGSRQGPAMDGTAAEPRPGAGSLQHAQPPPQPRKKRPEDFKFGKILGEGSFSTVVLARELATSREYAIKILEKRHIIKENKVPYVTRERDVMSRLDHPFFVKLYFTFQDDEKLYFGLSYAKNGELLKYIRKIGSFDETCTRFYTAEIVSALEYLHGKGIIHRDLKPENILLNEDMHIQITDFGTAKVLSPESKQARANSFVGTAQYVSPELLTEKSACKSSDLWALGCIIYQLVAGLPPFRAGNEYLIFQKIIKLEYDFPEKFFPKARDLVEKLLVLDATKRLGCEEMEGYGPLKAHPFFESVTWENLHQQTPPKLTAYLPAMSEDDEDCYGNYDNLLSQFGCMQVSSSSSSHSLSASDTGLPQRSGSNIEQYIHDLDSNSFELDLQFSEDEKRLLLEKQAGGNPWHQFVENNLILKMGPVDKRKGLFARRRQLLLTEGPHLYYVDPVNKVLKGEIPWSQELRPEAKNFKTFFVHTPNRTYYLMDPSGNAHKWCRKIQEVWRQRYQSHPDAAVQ

[4] = molecular target: T4, kinases (KINOMEscan panel) (Homo sapiens, UniProt Q8TF76); details: HASPIN; NEW KINOMEscan
T4 sequence (Q8TF76 1-798): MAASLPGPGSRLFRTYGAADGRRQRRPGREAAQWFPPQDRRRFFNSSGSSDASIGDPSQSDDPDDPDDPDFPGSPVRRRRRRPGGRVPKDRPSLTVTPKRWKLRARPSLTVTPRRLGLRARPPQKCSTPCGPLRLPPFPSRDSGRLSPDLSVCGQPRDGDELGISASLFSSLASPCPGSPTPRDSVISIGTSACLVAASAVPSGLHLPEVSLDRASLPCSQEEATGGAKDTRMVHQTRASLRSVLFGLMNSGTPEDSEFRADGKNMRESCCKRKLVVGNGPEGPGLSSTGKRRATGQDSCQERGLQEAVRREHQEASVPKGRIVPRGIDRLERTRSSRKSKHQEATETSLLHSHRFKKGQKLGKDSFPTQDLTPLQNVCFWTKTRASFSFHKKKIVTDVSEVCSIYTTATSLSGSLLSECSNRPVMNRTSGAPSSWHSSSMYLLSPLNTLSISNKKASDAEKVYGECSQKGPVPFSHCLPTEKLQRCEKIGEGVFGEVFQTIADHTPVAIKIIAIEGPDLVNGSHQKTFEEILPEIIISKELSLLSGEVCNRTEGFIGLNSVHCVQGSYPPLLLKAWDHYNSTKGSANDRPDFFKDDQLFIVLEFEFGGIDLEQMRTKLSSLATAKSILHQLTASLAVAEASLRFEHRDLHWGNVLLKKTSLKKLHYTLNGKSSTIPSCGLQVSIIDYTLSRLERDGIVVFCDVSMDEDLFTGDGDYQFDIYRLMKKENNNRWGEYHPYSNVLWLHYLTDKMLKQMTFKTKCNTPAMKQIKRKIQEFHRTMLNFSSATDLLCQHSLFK

| SMILES | KINOMEscan PIP4K2B [1] | KINOMEscan GRK7 [2] | KINOMEscan PDPK1 [3] | KINOMEscan HASPIN [4] |
| --- | --- | --- | --- | --- |
| Cc1cccc(-c2nc(Nc3ccc4nn(C)cc4c3)c3ccccc3n2)n1 [NK167] | 0 | 0 | 32 | 4 |
| Cc1cccc(-c2nc(N(C)c3ccc4ncsc4c3)c3ccccc3n2)n1 [NK-161] | 0 | 5 | 29 | 7 |
